Assay results: patent US12419869B2, “Methods of treating multiple sclerosis” (Vanda Pharmaceuticals Inc., priority 2021, dated 2025)

What was measured:
Format in all cases: in vivo, human
[1] = test system: adult subjects with relapsing MS; test: Treatment-emergent adverse events and premature treatment discontinuation, phase III study (Study 1)
Procedure: A total of 1438 MS patients have received PONVORY at doses of at least 2 mg daily. These patients were included in Study 1 (2-year active-controlled versus teriflunomide 14 mg) [see Clinical Studies (14)] and in a Phase 2 (6-month placebo-controlled) study in patients with MS and the uncontrolled extension studies.

[2] = test system: adult subjects with relapsing MS; test: 12-lead ECG heart rate and AV conduction at treatment initiation (Day 1, ponesimod 2 mg)
Procedure: As per up-titration regimen, the dose of ponesimod on Day 1 is 2 mg.
The incidence of treatment-emergent heart rate and rhythm (including hypotension) AESIs on Day 1 was higher in the ponesimod 20 mg arm (2.1%) than in the teriflunomide 14 mg arm (0.4%). However, the overall incidence of first dose AESI on Day 1 was low (2.1%) in ponesimod. None of these events were serious nor led to permanent discontinuation of study treatment. Discharge criteria at 4 hours post-dose were met for ca. 99% of subjects. […] ECG HR effect: nadir at 2 hours post-dose (siponimod—3-4 hours, fingolimod—around by 6 hours). Low incidence of low HR outliers (post-dose HR 40 bpm), all 3 of them with a pre-treatment HR of <55 bpm, which is a known risk factor for post-dose bradycardia with SIP receptor modulators.
The mean heart rate reduction compared to pre-dose reached a maximum for ponesimod 20 mg at 2-hours post dose, −8.7 bpm compared to −1.7 bpm for teriflunomide 14 mg (FIG. 6).
Initiation of PONVORY may result in a transient decrease in HR. In Study 1, bradycardia at treatment initiation and sinus bradycardia on ECG (defined as HR less than 50 bpm) occurred in 5.8% of PONVORY-treated patients compared to 1.6% of patients receiving teriflunomide 14 mg. After the first titration dose of PONVORY, the decrease in heart rate typically begins within an hour and reaches its nadir within 2-4 hours. The heart rate typically recovers to baseline levels 4-5 hours after administration. The mean decrease in heart rate on Day 1 of dosing was 6 bpm. With up-titration after Day 1, the post-dose decrease in heart rate is less pronounced. […] On Day 1, 3 patients treated with PONVORY had asymptomatic post-dose HR below or equal to 40 bpm; all 3 patients had baseline HRs below 55 bpm.

[3] = test system: adult subjects with relapsing MS; test: Pulmonary function (percent predicted FEV1), Study 1
Procedure: In Study 1, the reduction from baseline in percent predicted FEV1 at 2 years was 8.3% in PONVORY-treated patients compared to 4.4% in patients receiving teriflunomide 14 mg. In Study 1, 7 patients discontinued PONVORY because of pulmonary adverse events. There is insufficient information to determine the reversibility of the decrease in FEV1 or FVC after treatment discontinuation. PONVORY should be used with caution in patients with severe respiratory disease (i.e., pulmonary fibrosis, asthma, and chronic obstructive pulmonary disease). Spirometric evaluation of respiratory function should be performed during therapy with PONVORY if clinically indicated.

## C/C(O)=C(\C#N)C(=O)Nc1ccc(C(F)(F)F)cc1 [Teriflunomide, reference compound]
[1]; Safety Set
  Discontinuation reason: Death: (0.4) %
  Subjects who prematurely discontinued study treatment: (16.4) %
  Subjects with at least one Fatal AE: (0.4) %
[1]; human, in vivo
  Day 1 AESI Electrocardiogram QT prolonged: (0.2) %
  Day 1 AESI Presyncope: (02) %
[1]; human, in vivo, 2 year
  AE leading to discontinuation, SOC Blood and lymphatic system disorders: (0.4) %
  AE leading to discontinuation, SOC Cardiac disorders: (0.4) %
  AE leading to discontinuation, SOC Gastrointestinal disorders: (0.7) %
  AE leading to discontinuation, SOC General disorders and administration site conditions: (0.4) %
  AE leading to discontinuation, SOC Hepatobiliary disorders: (0.4) %
  AE leading to discontinuation, SOC Investigations: (1.8) %
  AE leading to discontinuation, SOC Musculoskeletal and connective tissue disorders: (0.2) %
  AE leading to discontinuation, SOC Neoplasms benign, malignant and unspecified (incl cysts and polyps): (0.2) %
  AE leading to discontinuation, SOC Nervous system disorders: (0.7) %
  AE leading to discontinuation, SOC Pregnancy, puerperium and perinatal conditions: (0.5) %
  AE leading to discontinuation, SOC Psychiatric disorders: (0.2) %
  AE leading to discontinuation, SOC Reproductive system and breast disorders: (0.2) %
  AE leading to discontinuation, SOC Skin and subcutaneous tissue disorders: (0.4) %
  AE leading to discontinuation, SOC Social circumstances: (0.2) %
  AE leading to discontinuation, SOC Surgical and medical procedures: (0.2) %
  AESI Effect on heart rate and rhythm (including hypotension): (4.2) %
  AESI Macular edema: (0.2) %
  AESI Non-skin malignancy: (0.2) %
  AESI Skin malignancy: (0.2) %
  Discontinuation reason: Physician decision, Adverse event: (1.6) %
  Discontinuation reason: Pre-specified study treatment discontinuation criteria: (2.8) %
  Discontinuation reason: Subject decision, Tolerability related: (0.9) %
  Incidence of basal cell carcinoma: 0.2%
  Overall rate of infections: 52.1%
  Subjects discontinued due to AEs or tolerability related reasons: 2.5%
  Subjects with at least one Drug-Related AE: (42.0) %
  Subjects with at least one Severe AE: (4.6) %
  TEAE ALT increased: 9.4%
  TEAE headache: 12.7%
  TEAE nasopharyngitis: 16.8%
  TEAE upper respiratory tract infection: 10.4%
[1]; human, in vivo, 2 years
  Adverse reaction: C-reactive protein increased: 1%
  Adverse reaction: Cough: 2%
  Adverse reaction: Dizziness: 3%
  Adverse reaction: Dyspnea: 1%
  Adverse reaction: Hepatic transaminase elevation: 12%
  Adverse reaction: Hypercholesterolemia: 1%
  Adverse reaction: Hypertension: 9%
  Adverse reaction: Pain in extremity: 3%
  Adverse reaction: Pyrexia: 1%
  Adverse reaction: Somnolence: 2%
  Adverse reaction: Urinary tract infection: 5%
  Adverse reaction: Vertigo: 1%
[1]; in vivo
  AESI Macular edema: none
  Discontinuation reason: Lost to follow-up: (0.5) %
  Discontinuation reason: Physician decision: (4.1) %
  Discontinuation reason: Physician decision, Lack of efficacy/treatment failure: (1.8) %
  Discontinuation reason: Physician decision, Other: (0.7) %
  Discontinuation reason: Subject decision: (8.7) %
  Discontinuation reason: Subject decision, Efficacy related: (2.5) %
  Discontinuation reason: Subject decision, Not known: (0.7) %
  Discontinuation reason: Subject decision, Other: (4.6) %
[2]; Day 1
  Mean heart rate change compared to pre-dose at 2 hours post dose (maximum): −1.7 bpm
  Subjects with asymptomatic post-dose HR ≤40 bpm: none
[2]; Study 1
  Bradycardia at treatment initiation and sinus bradycardia on ECG (HR less than 50 bpm): 1.6%
  First-degree AV block (prolonged PR interval on ECG): 1.2%
[3]
  Reduction from baseline in percent predicted FEV1 at 2 years: 4.4%
